# Measurements from patent publication US10526369B2, “Oxidative modification improves the drugability of cell penetrating peptides as drug carriers” (JOWIN BIOPHARMA, priority 2016, dated 2020).
# Where a SMILES comes first, the peptide text is derived from it. Bridges are numbered along the chain shown (N, C = ends). Roman numbers before positions name the chains, in order. Where no end group is shown, it is not given here. The star is where a group is joined. FITC = O=C1OC2(c3ccc(O)cc3Oc3cc(O)ccc32)c2ccc(NC(=S)*)cc21; 5FAM = O=C1OC2(c3ccc(O)cc3Oc3cc(O)ccc32)c2ccc(C(=O)*)cc21
# Key:
# [1] = Stability of peptides in mice serum (HPLC of remaining peptide, t1/2 by CompuSyn); assay type: in vitro ADME; settings: for Fold increase (of t1/2 compared with CPPecp): t1/2 of CPPecp set as one-fold; for half-life: mouse
# Method: FIG. 1 illustrates the stability of CPPecp in mice serum. CPPecp was dissolved in 1× PBS (4 mg/ml) and incubated with equal volume of mice serum (final 50%) for different time points (0, 2, 5, 15, 30, 60 min, respectively). The reaction was terminated by the addition of an equal volume of TCA solution (final 50%) and denatured serum proteins were removed by centrifugation. The supernatant was then assayed by HPLC to quantify the remaining CPPecp. Zero time point was set as 100 percent of remaining CPPecp and relative amounts of CPPecp in each time point were calculated. Data represent the mean±SD (standard deviation) of three independent experiments. The t1/2 of CPPecp was calculated by CompuSyn.
# FIG. 2 illustrates comparison of stabilities between CPPecp and N-terminal FITC-conjugated CPPecp in mice serum. Both were dissolved in dH2O (0.5 mg/ml) and incubated with equal volume of 20% mice serum (final 10%) for different time points (0, 2, 5, 15, 30, 60 min, respectively). The reactions were terminated by the addition of an equal volume of TCA solution (final 50%) and denatured serum proteins were removed by centrifugation. The supernatants were assayed by HPLC to quantify the remaining peptides. Zero time point was set as 100 percent of remaining peptides and relative amounts of peptides in each time point were calculated. The t1/2, of CPPecp and N-terminal FITC-CPPecp were calculated by CompuSyn.
# FIG. 3 illustrates stabilities of N-terminal (5-FAM)-CPPecp-CPPecp (A) and N-terminal Ac-CPPecp (B) in mice serum. Both modified peptides were dissolved in dH2O (0.5 mg/ml) and incubated with equal volume of 20% mice serum (final 10%) for different time points (0-24 hours for (5-FAM)-CPPecp-CPPecp and 0-60 min for Ac-CPPecp, respectively). The reactions were terminated by the addition of an equal volume of TCA solution (final 50%) and denatured serum proteins were removed by centrifugation. The supernatants were assayed by HPLC to quantify the remaining peptides. Zero time point was set as 100 percent of remaining peptides and relative amounts of peptides in each time point were calculated. The t1/2 of N-terminal (5-FAM)-CPPecp-CPPecp and N-terminal Ac-CPPecp were calculated by CompuSyn.
# FIG. 5 illustrates comparison of stabilities between CPPecp (A) and CPPecp-dimer (B) in mice serum. Both peptides were dissolved in 1× PBS (4 mg/ml) and incubated with equal volume of mice serum (final 50%) for different time points (0-60 min for CPPecp and 0-48 hours for CPPecp-dimer, respectively). The reactions were terminated by the addition of an equal volume of TCA solution (final 50%) and denatured serum proteins were removed by centrifugation. The supernatants were assayed by HPLC to quantify the remaining peptides. Zero time point was set as 100 percent of remaining peptides and relative amounts of peptides in each time point were calculated. Data represent the mean±SD (standard deviation) of three independent experiments. The t1/2, of CPPecp and CPPecp-dimer were calculated by CompuSyn.
# The unmodified CPPecp (NH2-NYRWRCKNQN-COOH (SEQ. ID NO:2)) was synthesized by MISSION BIOTECH Inc. in TAIWAN. To determine the stability of unmodified CPPecp in mice serum, 100 μl of CPPecp (0.5 mg/ml or 4 mg/ml) was mixed with equal volume of whole mice serum (strain: CD-1 (ICR), final 50%) and incubated at room temperature for 0, 2, 5, 15, 30 and 60 min. The reaction was stopped by adding 200 μl of 100% TCA solution and vortexed for 5 seconds to precipitate serum proteins. Denatured serum proteins were removed by centrifugation at 18000 x g, 4° C. for 2 mins. The supernatants were analyzed by HPLC (column: Purospher® STAR RP-18e, eluent A: 0.1% TFA in dH2O, eluent B: 0.1% TFA in acetonitrile, flow rate: 1ml/min, gradient: 2-35% of eluent B in 15 min, UV wavelength: 280 nm). Zero-time point was set as one hundred percent of remaining CPPecp and relative amount of CPPecp in each time point were calculated. The t1/2 of CPPecp was calculated by CompuSyn (ver. 1.0). […]
# [2] = tested on: lung cancer cell lines: A549, NCI-H460 and NCI-H441; test: Toxicity in lung cancer cell lines (cell viability, MTS assay); assay type: cell-based; settings: 0.3-30 μM, 72 hours
# Method: FIG. 8 illustrates toxicities of CPPecp and CPPecp-dimer in different lung cancer cell lines. Cells were incubated with CPPecp and CPPecp-dimer in different concentrations (0, 0.3, 1, 3, 10 and 30 μM) at 37° C. for 72 hours. Cell viabilities were measured by MTS assay. The 0 μM of CPPecp (vehicle control) was set as 100 percent and the relative viabilities in each concentration were calculated.
# In order to investigate the application potential of CPPecp-dimer as a drug carrier, the toxicity of CPPecp-dimer was tested and CPPecp monomer was compared in three lung cancer cell lines: A549, NCI-H460 and NCI-H441. Lung cancer cell lines were seeded in 96-well plates (2*10^3/well) and incubated overnight. After adhesion, cells were incubated with different concentrations of CPPecp and CPPecp dimer (0, 0.3, 1, 3, 10 and 30 μM) for 72 hours. Cell viabilities were determined by MST assay (Promega Corp.). The cells without treatment were set as control and 100 percent and the relative viabilities in each concentration were calculated.
# NCI-H460 cells = test: Heparan sulfate binding assay on cells (fluorescence spectrophotometer); assay type: cell-based; settings: NCI-H460 cells pre-incubated with heparanase 5 U/ml, 37° C., 2 hours
# Method: FIG. 7 illustrates binding specificity of CPPecp and CPPecp-dimer on NCI-H460 cells. Before treatment, each well (96-well plate) was blocked by 2% of BSA at 4° C. for 1 hour, and washed with PBS once. After blocking, NCI-H460 cells were incubated with 0.625, 1.25 and 2.5 μM of FITC-CPPecp and FITC-CPPecp dimer at 4° C. for 1 hour. After washing with PBS, the binding of FITC-CPPecp and FITC-CPPecp dimer were measured by fluorescence spectrophotometer (A). To test binding specificity, cells were incubated with heparanase (5 U/ml) at 37° C. for 2 hours before peptide incubation (B and C). Total peptide inputs (binding and washout) were set as 100 percent and the relative binding of FITC-CPPecp and FITC-CPPecp dimer were calculated. The data represented the means of triplicate incubations. […]
# In order to certify if the specific binding affinity to heparan sulfate of disulfide linked CPPecp-dimer is still maintained as original CPPecp, the heparan sulfate binding affinity was investigated by FITC-conjugated CPPecp monomer and dimer, and measured by fluorescence spectrophotometer. […] After rinse, each well was refilled with 100 μl of 1× PBS and the fluorescence intensity was measured by fluorescence spectrophotometer (excitation: 485 nm; emission: 521 nm) as binding partition. Unbound and rinsed out peptides were obtained by adding up the fluorescence intensity of culture medium and buffer. […]
# [3] = mice serum, final 10%, peptide 0.5 mg/ml in dH2O
# [4] = mice serum (CD-1 (ICR)), final 50%, room temperature
Compound,"stability compared with unmodified CPPecp (in words) ([1]; mice serum, final 10%)",Fold increase (of t1/2 compared with CPPecp) ([1]; mice serum),"half-life [1, 3]","increase of the stability of CPPecp ([1]; mice serum, final 50%)","half-life [1, 4]",effect on cell viabilities [2],binding percentage after heparanase treatment (NCI-H460 cells)
N=C(N)NCCC[C@H](NC(=O)[C@H](Cc1ccc(O)cc1)NC(=O)[C@H](CC(N)=O)NC(=O)c1ccc2c(c1)C(=O)OC21c2ccc(O)cc2Oc2cc(O)ccc21)C(=O)N[C@@H](Cc1c[nH]c2ccccc12)C(=O)N[C@@H](CCCNC(=N)N)C(=O)N[C@@H](CS)C(=O)N[C@@H](CCCCN)C(=O)N[C@@H](CC(N)=O)C(=O)N[C@@H](CCC(N)=O)C(=O)N[C@@H](CC(N)=O)C(=O)N[C@@H](CC(N)=O)C(=O)N[C@@H](Cc1ccc(O)cc1)C(=O)N[C@@H](CCCNC(=N)N)C(=O)N[C@@H](Cc1c[nH]c2ccccc12)C(=O)N[C@@H](CCCNC(=N)N)C(=O)N[C@@H](CS)C(=O)N[C@@H](CCCCN)C(=O)N[C@@H](CC(N)=O)C(=O)N[C@@H](CCC(N)=O)C(=O)N[C@@H](CC(N)=O)C(=O)O [(5-FAM)-CPPecp-CPPecp] (5FAM-NYRWRCKNQNNYRWRCKNQN-OH; N-terminus and C-terminus assumed),prolonged its stability from 2 to 24 hours,+720%,19.2 min,,,,
N=C(N)NCCC[C@H](NC(=O)[C@H](Cc1c[nH]c2ccccc12)NC(=O)[C@H](CCCNC(=N)N)NC(=O)[C@H](Cc1ccc(O)cc1)NC(=O)[C@@H](N)CC(N)=O)C(=O)N[C@@H](CSSC[C@H](NC(=O)[C@H](CCCNC(=N)N)NC(=O)[C@H](Cc1c[nH]c2ccccc12)NC(=O)[C@H](CCCNC(=N)N)NC(=O)[C@H](Cc1ccc(O)cc1)NC(=O)[C@@H](N)CC(N)=O)C(=O)N[C@@H](CCCCN)C(=O)N[C@@H](CC(N)=O)C(=O)N[C@@H](CCC(N)=O)C(=O)N[C@@H](CC(N)=O)C(=O)O)C(=O)N[C@@H](CCCCN)C(=O)N[C@@H](CC(N)=O)C(=O)N[C@@H](CCC(N)=O)C(=O)N[C@@H](CC(N)=O)C(=O)O [CPPecp-dimer] (I: H-NYRWRCKNQN-OH / II: H-NYRWRCKNQN-OH; disulfide I:6-II:6),,+17900%,,up to 180 fold,420 min,no inhibitory effect,
N=C(N)NCCC[C@H](NC(=O)[C@H](Cc1c[nH]c2ccccc12)NC(=O)[C@H](CCCNC(=N)N)NC(=O)[C@H](Cc1ccc(O)cc1)NC(=O)[C@H](CC(N)=O)NC(=S)Nc1ccc2c(c1)C(=O)OC21c2ccc(O)cc2Oc2cc(O)ccc21)C(=O)N[C@@H](CS)C(=O)N[C@@H](CCCCN)C(=O)N[C@@H](CC(N)=O)C(=O)N[C@@H](CCC(N)=O)C(=O)N[C@@H](CC(N)=O)C(=O)O [FITC-CPPecp] ({FITC}-NYRWRCKNQN-OH; C-terminus assumed),not improved,+40%,3.28 min,,,,decreased binding percentage
Ac-NYRWRCKNQN [Ac-CPPecp],,−24%,1.79 min,,,,
"H-NYRWRCKNQN-OH [CPPecp, NH2-NYRWRCKNQN-COOH (SEQ. ID NO:2), reference compound]",,0%,,,2.34 min,no inhibitory effect,
